Experimental data reported in patent publication US9238020B2, “Compositions comprising enzyme-cleavable phenol-modified tapentadol prodrug” (priority 2010, dated 2016).
Where two headings read alike, the source gives them in different places.

Columns and labels:
[1] = test system: norepinephrine uptake into rat hypothalamus synaptosomes; test: In vitro functional norepinephrine uptake assay; assay type: biochemical; conditions: rat hypothalamus synaptosomes
Experimental: The general procedure follows the protocol described by S. Perovic and W. E. G. Muller, 1995, Arzneim-Forsch. Drug Res. 45, 1145-1148. More specifically, the assays included each of the compounds indicated in Table 13 and rat hypothalamus synaptosomes incubated with 0.2 μCi/mL [^3H] norepinephrine. For a control reaction, protriptyline was used. The reaction mixtures were incubated at 37° C. for 20 min, and the reaction product of [^3H] norepinephrine incorporation into the synaptosomes was measured by scintillation counting. IC50 values (concentration causing a half-maximal inhibition of control specific activity) were determined by non-linear regression fit using Hill plot software.

[2] = Plasma and cerebrospinal fluid penetration following IV administration to rats; assay type: in vivo, rat; conditions: for concentration at 2 min: male, Sprague Dawley, rat, in vivo, TP-1 10 mg/kg, tapentadol 4 mg/kg
Experimental: Compound TP-1 (which can be prepared as described in the examples herein) at a dose of 10 mg/kg, or tapentadol, at a dose of 4 mg/kg, were dissolved in saline and injected into the tail vein of 4 male Sprague Dawley rats. These doses represent approximately equimole amounts. After 2 minutes, the rats were anesthetized by carbon dioxide asphyxiation, blood samples were drawn and harvested for plasma by centrifugation at 5,400 rpm at 4° C. for 5 min, and 100 μl plasma was transferred from each sample into a fresh tube containing 2 μl of 50% formic acid. The CSF fluid was collected using a 22×1 inch gauge needle connected to polyurethane catheter type MRE-040 tubing (Braintree Scientific, Inc., Braintree, Mass.). The needle was inserted just below the nuchal crest at the area of the foramen magnum, and clear CSF fluid was collected into the catheter and transferred into a collection tube. The CSF samples were centrifuged at 5,400 rpm at 4° C. for 5 min, and 100 μl CSF fluid was transferred from each sample into a fresh tube. The plasma and CSF samples were immediately placed in dry ice and then stored in a −80° C. freezer until analysis by high performance liquid chromatography/mass spectrometry (HPLC/MS). In order to study Compound TP-1 and tapentadol plasma and CSF penetration over time, additional groups of 4 rats were administered compounds as described above and anesthetized at specified time points. Plasma and CSF were collected and analyzed as described above.
Results in Table 14 are reported, for each group of four rats, as mean concentrations of the indicated compounds in plasma or CSF. Table 14 also provides the plasma-to-CSF (plasma/CSF) partitioning coefficient, i.e., the ratio of concentration in the plasma to concentration in the CSF of the indicated compounds.

[3] = Pharmacokinetics of prodrug and tapentadol following IV administration to rats; conditions: male, Sprague Dawley, in vivo; prodrug in rat plasma; TP-1 IV 2 mg/kg (3 μmol/kg); read-out: TP-1 Cmax ± sd
Experimental: Compound TP-1 (which can be prepared as described in the examples herein) was dissolved in saline and injected into the tail vein of 4 jugular vein-cannulated male Sprague Dawley rats at a dose of 2 mg/kg. At specified time points, blood samples were drawn, harvested for plasma via centrifugation at 5,400 rpm at 4° C. for 5 min, and 100 μl plasma transferred from each sample into a fresh tube containing 2 μl of 50% formic acid. The tubes were vortexed for 5-10 seconds, immediately placed in dry ice and then stored in a −80° C. freezer until analysis by high performance liquid chromatography/mass spectrometry (HPLC/MS).
Table 2 and FIG. 4 provide Compound TP-1 and tapentadol exposure results for rats administered Compound TP-1 intravenously. Results in Table 2 are reported as maximum plasma concentration (Cmax) of Compound TP-1 and tapentadol (TP), respectively, (average±standard deviation).
Compound TP-3 or Compound TP-4 (which can be prepared as described in the examples herein), or tapentadol were dissolved in saline and injected into the tail vein of four jugular vein-cannulated male Sprague Dawley rats at a dose of 2 mg/kg. Sampling and analysis procedures were as described in Example 12.

[4] = target: T1, trypsin from bovine pancreas (Bos taurus, UniProt P00760); test: In vitro trypsin conversion of prodrug to tapentadol and inhibition thereof by Compound 109; assay type: biochemical; conditions: 4815 BAEE U trypsin/mL
T1 construct: purchased Sigma-Aldrich T8003; host or cells: bovine pancreas
T1 sequence (P00760 24-246): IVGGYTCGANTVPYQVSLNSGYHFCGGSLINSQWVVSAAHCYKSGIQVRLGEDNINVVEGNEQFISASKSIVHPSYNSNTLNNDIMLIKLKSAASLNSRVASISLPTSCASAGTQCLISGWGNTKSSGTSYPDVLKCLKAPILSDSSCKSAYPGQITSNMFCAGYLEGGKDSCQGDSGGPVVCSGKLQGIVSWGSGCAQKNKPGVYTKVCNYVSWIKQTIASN
Experimental: (§1) Compound TP-1 was incubated with trypsin from bovine pancreas (Catalog No. T8003, Type I, ˜10,000 BAEE units/mg protein, Sigma-Aldrich). Specifically, the reactions included 0.761 nM of Compound TP-1•2HCl, 22.5 mM calcium chloride, 40 to 172 mM Tris pH 8 and 0.25% DMSO with the BAEE units of trypsin indicated in Table 4. The reactions were conducted at 37° C. for 24 hr. Samples were collected at specified time points, transferred into 0.5% formic acid in acetonitrile to stop trypsin activity and stored at less than −70° C. until analysis by LC-MS/MS.
(§2) Compound TP-1 was also incubated in the presence of 2 micromolar (μM) trypsin inhibitor Compound 109. In that case, Compound TP-1 was added 5 min after the other incubation components. Other reaction and sample treatment conditions were as described above.
(§3) Table 4 indicates the results of exposure of Compound TP-1 to trypsin in the absence or presence of trypsin inhibitor. The results are expressed as half-life of prodrug when exposed to trypsin (i.e., Prodrug trypsin half-life) in hours and rate of tapentadol (TP) formation in umol/h/BAEE U trypsin.
(§4) Compound TP-1, Compound TP-3, or Compound TP-4 (which can be prepared as described in the examples herein) were incubated in the absence or presence of Compound 109 as shown in Table 8. Incubations and analysis procedures were as described in Example 14.

[5] = target: T2, trypsin (Bos taurus, UniProt P00760); test: as above; assay type: biochemical, bovine; conditions: bovine, trypsin from bovine pancreas, pH 8, with Compound 109 (trypsin inhibitor); Table 8; 4815 BAEE U trypsin/mL, Compound 109 40 μM; read-out: Pro-drug trypsin half-life, Average ± sd (converted)
T2 construct: purchased Sigma-Aldrich T8003; host or cells: bovine pancreas
T2 sequence (P00760 24-246): T1 sequence (P00760 24-246)
Experimental: as §1, §2, §3, §4

CC[C@@H](c1cccc(OC(=O)N(C)CCNC(=O)[C@H](CCCNC(=N)N)NC(=O)CC(=O)O)c1)[C@@H](C)CN(C)C [Compound TP-1, N—[(S)-1-(2-{[3-((1R,2R)-3-dimethylamino-1-ethyl-2-methyl-propyl)-phenoxycarbonyl]-methyl-amino}-ethylcarbamoyl)-4-guanidino-butyl]-malonamic acid]
activity as a norepinephrine reuptake inhibitor [1]: no detectable activity | relative plasma/CSF partitioning coefficient of Compound TP-1 to tapentadol (fold less CSF-penetrant) ([2]; 671/10.4): about 64 fold | concentration at 2 min ([2]; rats, IV, 2 minutes after dosing, read-out: Compound conc. in CSF): 65.3 ng/mL | concentration at 2 min ([2]; rats, IV, 2 minutes after dosing, read-out: Compound conc. in Plasma): 43800 ng/mL | Plasma/CSF partitioning coefficient ([2]; rats, IV, 2 minutes after dosing, ratio of concentration in plasma to concentration in CSF): 671 | Cmax [3]: 965 ± 160 ng/mL | Rate of TP formation, Average ± sd ([4]; Table 4, Compound 109 0 μM): 0.0302 ± 0.002 umol/h/BAEE U | Rate of TP formation, Average ± sd ([4]; Table 4, Compound 109 2 μM): 0.0243 ± 0.0008 umol/h/BAEE U | Rate of TP formation, Average ± sd ([4]; Table 8, Compound 109 0 μM): 0.0302 ± 0.002 umol/h/BAEE U | Rate of TP formation, Average ± sd ([4]; Table 8, Compound 109 2 μM): 0.0243 ± 0.0008 umol/h/BAEE U | half-life at 0.761 nM [5]: 3.94 ± 0.18 h
